# Counter-ions that a name gives are not always drawn. Like-named read-outs stand apart in the source and are kept apart here.
# Columns and labels:
# [1] = test system: E. coli ML 4707; assay: Therapeutic effect on the systemic infection of mouse; assay type: in vivo, ICR mice; details: Escherichia coli, ML4707, po, 1 h, read-out: ED50 E. coli
# Description: (§1) The infectious bacteria were injected intraperitoneally using five ICR mice per group. one hour later, 5 doses of drugs were administered once orally, respectively, and, from a curve of survival rate of mouse as a function of dose of drug, a dose (EDso) by which 50% of animals escape the death to heal was determined.
# [2] = test system: S. aureus Smith; assay: as above; assay type: in vivo, ICR mice; details: Staphylococcus aureus, po, 1 h, read-out: ED50 S. aureus
# Description: as §1
# [3] = test system: S. aureus 209P; assay: Antibacterial spectra (MIC), method of the Society of Chemotherapy in Japan; assay type: cell-based; details: Staphylococcus aureus, Gram +, 10^6 cells/ml, read-out: Minimum inhibitory concentration for growth
# [4] = test system: S. aureus Smith; assay: as above; assay type: cell-based; details: Staphylococcus aureus, Gram +, 10^6 cells/ml, read-out: Minimum inhibitory concentration for growth
# [5] = test system: S. epidermidis IID866; assay: as above; assay type: cell-based; details: Staphylococcus epidermidis; S. epidermidis IID866, Gram +, 10^6 cells/ml; read-out: Minimum inhibitory concentration for growth
# [6] = test system: S. pyogenes S-8; assay: as above; assay type: cell-based; details: Streptococcus pyogenes, S8; S. pyogenes S-8, Gram +, 10^6 cells/ml; read-out: Minimum inhibitory concentration for growth
# [7] = test system: S. pneumoniae type III; assay: as above; assay type: cell-based; details: Streptococcus pneumoniae, Gram +, 10^6 cells/ml, read-out: Minimum inhibitory concentration for growth
# [8] = test system: K. pneumoniae KY6445; assay: as above; assay type: cell-based; details: Klebsiella pneumoniae; K. pneumoniae KY6445, Gram -, 10^6 cells/ml; read-out: Minimum inhibitory concentration for growth
# [9] = test system: E. cloacae IID977; assay: as above; assay type: cell-based; details: Enterobacter cloacae; E. cloacae IID977, Gram -, 10^6 cells/ml; read-out: Minimum inhibitory concentration for growth
# [10] = test system: C. freundii IID976; assay: as above; assay type: cell-based; details: Citrobacter freundii; C. freundii IID976, Gram -, 10^6 cells/ml; read-out: Minimum inhibitory concentration for growth
# [11] = test system: P. mirabilis IID994; assay: as above; assay type: cell-based; details: Proteus mirabilis; P. mirabilis IID994, Gram -, 10^6 cells/ml; read-out: Minimum inhibitory concentration for growth
# [12] = test system: S. enteritidis IID604; assay: as above; assay type: cell-based; details: Salmonella enterica; S. enteritidis IID604, Gram -, 10^6 cells/ml; read-out: Minimum inhibitory concentration for growth
# [13] = test system: P. aeruginosa V-1; assay: as above; assay type: cell-based; details: Pseudomonas aeruginosa, V1; P. aeruginosa V-1, Gram -, 10^6 cells/ml; read-out: Minimum inhibitory concentration for growth
# [14] = test system: A. anitratus IID876; assay: as above; assay type: cell-based; details: Acinetobacter calcoaceticus; A. anitratus IID876, Gram -, 10^6 cells/ml; read-out: Minimum inhibitory concentration for growth
# [15] = test system: B. thetaiotaomicron 0661; assay: as above; assay type: cell-based; details: Bacteroides thetaiotaomicron; B. thetaiotaomicron 0661, Gram -, 10^6 cells/ml; read-out: Minimum inhibitory concentration for growth
# [16] = test system: S. pneumoniae S-4288; assay: as above; assay type: cell-based; details: Streptococcus pneumoniae, S4288; S. pneumoniae S-4288, Gram +, 10^6 cells/ml; read-out: Minimum inhibitory concentration for growth
# [17] = test system: S. pneumoniae IID552; assay: as above; assay type: cell-based; details: Streptococcus pneumoniae; S. pneumoniae IID552, Gram +, 10^6 cells/ml; read-out: Minimum inhibitory concentration for growth
# [18] = test system: E. faecalis IID682; assay: as above; assay type: cell-based; details: Enterococcus faecalis; E. faecalis IID682, Gram +, 10^6 cells/ml; read-out: Minimum inhibitory concentration for growth
# [19] = test system: P. vulgaris IFO3167; assay: as above; assay type: cell-based; details: Proteus vulgaris; P. vulgaris IFO3167, Gram -, 10^6 cells/ml; read-out: Minimum inhibitory concentration for growth
# [20] = test system: C. perfringens KYA13123; assay: microbe, parasite or virus in culture; assay type: cell-based; details: Clostridium perfringens, KYA13123, read-out: Minimum inhibitory concentration for growth
# [21] = test system: E. coli NIHJ JC-2; assay: Antibacterial spectra (MIC), method of the Society of Chemotherapy in Japan; assay type: cell-based; details: Escherichia coli, NIHJJC2; E. coli NIHJ JC-2, Gram -, 10^6 cells/ml; read-out: Minimum inhibitory concentration for growth
# [22] = test system: S. sonnei IID969; assay: as above; assay type: cell-based; details: Shigella sonnei; S. sonnei IID969, Gram -, 10^6 cells/ml; read-out: Minimum inhibitory concentration for growth
# Description: The antibacterial test was performed according to the method designated by Society of Chemotherapy in Japan.
# [23] = test system: P. aeruginosa IFO12689; assay: as above; assay type: cell-based; details: Pseudomonas aeruginosa; P. aeruginosa IFO12689, Gram -, 10^6 cells/ml; read-out: Minimum inhibitory concentration for growth
# [24] = test system: P. aeruginosa IID1210; assay: as above; assay type: cell-based; details: Pseudomonas aeruginosa; P. aeruginosa IID1210, Gram -, 10^6 cells/ml; read-out: Minimum inhibitory concentration for growth
# [25] = test system: M. morganii IID602; assay: as above; assay type: cell-based; details: Morganella morganii; M. morganii IID602, Gram -, 10^6 cells/ml; read-out: Minimum inhibitory concentration for growth
# [26] = test system: S. marcescens IID618; assay: as above; assay type: cell-based; details: Serratia marcescens; S. marcescens IID618, Gram -, 10^6 cells/ml; read-out: Minimum inhibitory concentration for growth
# [27] = test system: P. maltophilia GIFU2491; assay: as above; assay type: cell-based; details: Stenotrophomonas maltophilia; P. maltophilia GIFU2491, Gram -, 10^6 cells/ml; read-out: Minimum inhibitory concentration for growth
# [28] = E. coli ML 4707, 8.8x10^6 CFU/mouse intraperitoneally, drug once orally one hour later, dose at which 50% of ICR mice survive
# [29] = S. aureus Smith, 4.8x10^6 CFU/mouse intraperitoneally, drug once orally one hour later, dose at which 50% of ICR mice survive
Compound,MIC [3],MIC [4],MIC [5],MIC [6],MIC [7],MIC [8],MIC [9],MIC [10],MIC [11],MIC [12],MIC [13],MIC [14],MIC [15],"ED50 [1, 28]","ED50 [2, 29]",MIC [16],MIC [17],MIC [18],MIC [19],MIC [20],also measured
"O=C(O)c1cn(C2CC2)c2cc(N3CCNCC3)c(F)cc2c1=O [CPFX, Ciprofloxacin, reference compound]",,,,,,,,,,,,,,,,,,,,,ED50 [1]: 0.49 mg/kg; ED50 [2]: 20.3 mg/kg
"COc1c(N2C[C@@H](C)[C@H](N)C2)c(F)cc2c(=O)c(C(=O)O)cn(C3CC3)c12 [Example 33, 7-[3(S)-amino-4(R)-methyl-l-pyrrolidinyl]-1-cyclopropyl-6-fluoro-1,4-dihydro-8-methoxy-4-oxo-3-quinolinecarboxylic acid hydrochloride]",0.025 µg/mL,0.025 µg/mL,0.05 µg/mL,0.05 µg/mL,0.05 µg/mL,0.025 µg/mL,0.05 µg/mL,0.05 µg/mL,0.05 µg/mL,0.05 µg/mL,0.2 µg/mL,0.05 µg/mL,0.2 µg/mL,0.31 mg/kg,1.21 mg/kg,,,,,,
"COc1c(N2C[C@@H](N)[C@@H](C)C2)c(F)cc2c(=O)c(C(=O)O)cn(C3CC3)c12 [Example 34, 7-[3(S)amino-4(S)-methyl-1-pyrrolidinyl]-1-cyclopropyl-6-fluoro-1,4-dihydro-8-methoxy-4-oxo-3-quinolinecarboxyic acid hydrochloride]",0.025 µg/mL,0.025 µg/mL,0.05 µg/mL,,0.05 µg/mL,0.025 µg/mL,,0.05 µg/mL,0.025 µg/mL,0.05 µg/mL,0.2 µg/mL,0.05 µg/mL,,0.26 mg/kg,1.39 mg/kg,0.2 µg/mL,0.2 µg/mL,0.2 µg/mL,0.025 µg/mL,0.2 µg/mL,
"COc1c(N2C[C@@H](C)[C@@H](N)C2)c(F)cc2c(=O)c(C(=O)O)cn(C3CC3)c12.Cl [Example 35, 7-[3(R)-amino-4(R)-methyl-1-pyrrolidinyl]-1-cyclopropyl-6-fluoro-1,4-dihydro-8-methoxy-4-oxo-3-quinolinecarboxylic acid hydrochloride]",0.025 µg/mL,0.025 µg/mL,0.05 µg/mL,0.2 µg/mL,,0.05 µg/mL,,,0.05 µg/mL,,,0.05 µg/mL,,1.11 mg/kg,2 mg/kg,0.2 µg/mL,0.2 µg/mL,0.2 µg/mL,0.025 µg/mL,0.2 µg/mL,MIC [21]: 0.025 µg/mL; MIC [22]: 0.025 µg/mL; MIC [23]: 1.56 µg/mL; MIC [24]: 1.56 µg/mL
"COc1c(N2C[C@H](C)[C@@H](N)C2)c(F)cc2c(=O)c(C(=O)O)cn(C3CC3)c12 [Example 36, 7-[3(R)-amino-4(S)-methyl-I-pyrrolidinyl]-I-cyclopropyl-6-fluoro-1-4-dihydro-8-methoxy-4-oxo-3-quinolinecarboxylic acid hydrochloride]",0.05 µg/mL,,,0.2 µg/mL,0.2 µg/mL,0.05 µg/mL,0.2 µg/mL,,,,,,1.56 µg/mL,2.04 mg/kg,6.08 mg/kg,,,,0.025 µg/mL,,MIC [21]: 0.025 µg/mL; MIC [25]: 0.2 µg/mL; MIC [26]: 0.2 µg/mL; MIC [22]: 0.025 µg/mL; MIC [23]: 1.56 µg/mL; MIC [24]: 1.56 µg/mL; MIC [27]: 0.2 µg/mL
